In the NIST ThermoML archive (doi:10.1016/j.fluid.2004.09.013):

Conditions: for mass density: Fluid (supercritical or subcritical phases), Vibrating tube method; for vapor or sublimation pressure: Liquid

C=CCC [1-butene]
Conditions | mass density [kg/m3]
273.24 K, 612 kPa | 619.16
273.24 K, 4987 kPa | 624.98
273.24 K, 9990 kPa | 631.06
273.24 K, 15004 kPa | 636.64
273.24 K, 20005 kPa | 641.81
273.24 K, 24989 kPa | 646.61
273.24 K, 29996 kPa | 651.13
273.24 K, 34991 kPa | 655.38
273.24 K, 39998 kPa | 659.41
278.25 K, 610 kPa | 613.23
278.25 K, 4982 kPa | 619.35
278.25 K, 9991 kPa | 625.73
278.25 K, 14984 kPa | 631.55
278.25 K, 20001 kPa | 636.92
278.25 K, 24985 kPa | 641.91
278.25 K, 30007 kPa | 646.61
278.25 K, 34997 kPa | 650.99
278.25 K, 39995 kPa | 655.14
283.26 K, 610 kPa | 607.22
283.26 K, 4984 kPa | 613.69
283.26 K, 9995 kPa | 620.39
283.26 K, 15000 kPa | 626.47
283.26 K, 19989 kPa | 632.05
283.26 K, 24987 kPa | 637.22
283.26 K, 30013 kPa | 642.08
283.26 K, 35003 kPa | 646.62
283.26 K, 39990 kPa | 650.88
288.27 K, 611 kPa | 601.14
288.27 K, 14998 kPa | 621.36
288.28 K, 4990 kPa | 607.98
288.28 K, 9997 kPa | 615.01
288.28 K, 19990 kPa | 627.16
288.28 K, 24993 kPa | 632.55
288.28 K, 30009 kPa | 637.56
288.28 K, 35002 kPa | 642.25
288.28 K, 39995 kPa | 646.65
293.29 K, 611 kPa | 594.95
293.29 K, 4994 kPa | 602.2
293.29 K, 9995 kPa | 609.58
293.29 K, 14989 kPa | 616.2
293.29 K, 19984 kPa | 622.26
293.29 K, 24990 kPa | 627.84
293.29 K, 29991 kPa | 633.02
293.29 K, 34994 kPa | 637.87
293.29 K, 39994 kPa | 642.42
298.3 K, 613 kPa | 588.66
298.3 K, 4990 kPa | 596.33
298.3 K, 10001 kPa | 604.11
298.3 K, 14994 kPa | 611.04
298.3 K, 19995 kPa | 617.35
298.3 K, 24993 kPa | 623.14
298.3 K, 30005 kPa | 628.51
298.3 K, 35015 kPa | 633.51
298.3 K, 40003 kPa | 638.19
303.31 K, 661 kPa | 582.33
303.31 K, 9983 kPa | 598.56
303.31 K, 15001 kPa | 605.85
303.31 K, 19987 kPa | 612.4
303.31 K, 24994 kPa | 618.42
303.31 K, 30008 kPa | 623.99
303.31 K, 35004 kPa | 629.15
303.32 K, 4995 kPa | 590.39
303.32 K, 40006 kPa | 633.97
308.32 K, 4985 kPa | 584.34
308.32 K, 9991 kPa | 592.99
308.32 K, 14996 kPa | 600.61
308.32 K, 19992 kPa | 607.46
308.32 K, 25004 kPa | 613.71
308.32 K, 30007 kPa | 619.45
308.32 K, 34999 kPa | 624.79
308.32 K, 40000 kPa | 629.76
308.33 K, 713 kPa | 575.87
313.2 K, 947 kPa | 569.83
313.2 K, 4992 kPa | 578.34
313.2 K, 9990 kPa | 587.43
313.2 K, 14997 kPa | 595.4
313.2 K, 19994 kPa | 602.53
313.2 K, 24994 kPa | 609.01
313.2 K, 30011 kPa | 614.95
313.2 K, 35009 kPa | 620.44
313.2 K, 39997 kPa | 625.59
318.21 K, 1037 kPa | 563.26
318.21 K, 5017 kPa | 572.17
318.21 K, 10015 kPa | 581.78
318.21 K, 15007 kPa | 590.11
318.21 K, 20018 kPa | 597.56
318.21 K, 25018 kPa | 604.28
318.21 K, 30002 kPa | 610.4
318.21 K, 35001 kPa | 616.07
318.21 K, 39996 kPa | 621.35
323.21 K, 1110 kPa | 556.48
323.21 K, 9982 kPa | 575.95
323.21 K, 14984 kPa | 584.73
323.21 K, 25001 kPa | 599.51
323.21 K, 30001 kPa | 605.88
323.21 K, 34994 kPa | 611.74
323.21 K, 40004 kPa | 617.19
323.22 K, 5006 kPa | 565.82
323.22 K, 19997 kPa | 592.52
328.22 K, 1187 kPa | 549.53
328.22 K, 4989 kPa | 559.32
328.22 K, 9998 kPa | 570.14
328.22 K, 14996 kPa | 579.36
328.22 K, 19992 kPa | 587.47
328.22 K, 25011 kPa | 594.75
328.22 K, 30003 kPa | 601.33
328.22 K, 34986 kPa | 607.37
328.22 K, 40001 kPa | 613
333.22 K, 1276 kPa | 542.42
333.22 K, 4994 kPa | 552.72
333.22 K, 10001 kPa | 564.22
333.22 K, 14993 kPa | 573.92
333.22 K, 20000 kPa | 582.4
333.22 K, 24986 kPa | 589.92
333.22 K, 29987 kPa | 596.76
333.22 K, 35007 kPa | 603.04
333.22 K, 40005 kPa | 608.82
338.22 K, 1372 kPa | 535.11
338.22 K, 4996 kPa | 545.96
338.22 K, 9985 kPa | 558.18
338.22 K, 14991 kPa | 568.42
338.22 K, 19988 kPa | 577.27
338.22 K, 25002 kPa | 585.14
338.22 K, 29995 kPa | 592.2
338.22 K, 34993 kPa | 598.67
338.22 K, 39988 kPa | 604.63
343.22 K, 1477 kPa | 527.59
343.22 K, 4989 kPa | 538.99
343.22 K, 9987 kPa | 552.06
343.22 K, 14985 kPa | 562.84
343.22 K, 19995 kPa | 572.12
343.22 K, 24993 kPa | 580.29
343.22 K, 29995 kPa | 587.63
343.22 K, 34993 kPa | 594.3
343.22 K, 39996 kPa | 600.44
348.22 K, 9989 kPa | 545.85
348.22 K, 24986 kPa | 575.42
348.23 K, 1592 kPa | 519.85
348.23 K, 4984 kPa | 531.84
348.23 K, 14988 kPa | 557.22
348.23 K, 20000 kPa | 566.94
348.23 K, 29995 kPa | 583.02
348.23 K, 35000 kPa | 589.94
348.23 K, 39996 kPa | 596.25
353.23 K, 1715 kPa | 511.85
353.23 K, 4999 kPa | 524.53
353.23 K, 9991 kPa | 539.5
353.23 K, 14992 kPa | 551.53
353.23 K, 19991 kPa | 561.68
353.23 K, 24984 kPa | 570.52
353.23 K, 30003 kPa | 578.41
353.23 K, 34996 kPa | 585.54
353.23 K, 40004 kPa | 592.05
358.23 K, 1846 kPa | 503.54
358.23 K, 4995 kPa | 516.91
358.23 K, 9989 kPa | 533.03
358.23 K, 14984 kPa | 545.76
358.23 K, 19997 kPa | 556.43
358.23 K, 25002 kPa | 565.63
358.23 K, 30007 kPa | 573.81
358.23 K, 34991 kPa | 581.14
358.23 K, 39997 kPa | 587.85
363.23 K, 1991 kPa | 494.93
363.23 K, 4996 kPa | 509.02
363.23 K, 9987 kPa | 526.43
363.23 K, 14995 kPa | 539.91
363.23 K, 19993 kPa | 551.05
363.23 K, 24987 kPa | 560.63
363.23 K, 29994 kPa | 569.1
363.23 K, 35013 kPa | 576.7
363.23 K, 39993 kPa | 583.59
368.23 K, 2145 kPa | 485.95
368.23 K, 4994 kPa | 500.81
368.23 K, 10001 kPa | 519.71
368.23 K, 15000 kPa | 534.01
368.23 K, 19992 kPa | 545.69
368.23 K, 24989 kPa | 555.66
368.23 K, 29994 kPa | 564.43
368.23 K, 34993 kPa | 572.27
368.23 K, 39995 kPa | 579.38
373.23 K, 2313 kPa | 476.57
373.23 K, 10000 kPa | 512.83
373.23 K, 19991 kPa | 540.27
373.23 K, 24984 kPa | 550.66
373.23 K, 30002 kPa | 559.76
373.23 K, 35005 kPa | 567.88
373.23 K, 39997 kPa | 575.19
373.24 K, 5000 kPa | 492.29
373.24 K, 15001 kPa | 528.02
378.23 K, 4992 kPa | 483.29
378.23 K, 40004 kPa | 571.03
378.24 K, 2492 kPa | 466.71
378.24 K, 9989 kPa | 505.75
378.24 K, 14998 kPa | 521.94
378.24 K, 20001 kPa | 534.83
378.24 K, 24999 kPa | 545.69
378.24 K, 30000 kPa | 555.11
378.24 K, 35012 kPa | 563.49
383.24 K, 2679 kPa | 456.23
383.24 K, 5001 kPa | 473.89
383.24 K, 9994 kPa | 498.55
383.24 K, 14998 kPa | 515.79
383.24 K, 19999 kPa | 529.35
383.24 K, 24986 kPa | 540.63
383.24 K, 29986 kPa | 550.4
383.24 K, 34993 kPa | 559.06
383.24 K, 39986 kPa | 566.81
388.24 K, 2883 kPa | 445.15
388.24 K, 4993 kPa | 463.82
388.24 K, 9989 kPa | 491.12
388.24 K, 14987 kPa | 509.52
388.24 K, 20000 kPa | 523.81
388.24 K, 24990 kPa | 535.58
388.24 K, 29995 kPa | 545.72

Conditions | vapor or sublimation pressure [kPa]
289.42 K | 225.85
294 K | 260.86
301.73 K | 329.59
306.48 K | 378.14
315.34 K | 484.39
321.69 K | 572.17
329.51 K | 695.71
337.04 K | 833.9
337.68 K | 845.55
345.48 K | 1009.7
353.71 K | 1207.9
358.53 K | 1337.5
361.4 K | 1416.5
366.99 K | 1590.4
367.1 K | 1594.8
379.44 K | 2014.2
386.99 K | 2310.4
